In patent US20120190754A1, “ANTIMICROBIAL COMPOSITION CONTAINING PARACHLORMETAXYLENOL” (Sentinel Products Corp., priority 2009, published 2012):

Tested on: bacteria or mold
Assay: retention of antimicrobial activity on a substrate
Conditions: no test method described

**Q.** For `Cc1cc(O)cc(C)c1Cl` [PCMX, 4-chloro-3,5-dimethyl phenol], which “duration of antimicrobial effect on a substrate” value is on record?
**A.** The value was “hours”.
